{
  "source": "patent US20250241878A1",
  "about": "“TYROSINE AND RESVERATROL DERIVATIVES AS NOVEL MODULATORS OF CELLULAR SERINE ADP-RIBOSYLATION” (UNIVERSITY OF SOUTH CAROLINA, priority 2022, published 2025)",
  "format_in_all_cases": "cell-based, rat",
  "key": {"[1]": {"test_system": "eEF2", "assay": "eEF2 phosphorylation (p-eEF2) Western blot in cortical neurons", "details": "compound alone", "description": "(§1) Primary cortical neurons were dissected from E18 Sprague Dawley rat pups in Hibernate E (BrainBits®) and dissociated using the Neural Tissue Dissociation kit (Miltenyi Biotec). Minced cortices were incubated in a pre-warmed enzyme mix at 37° C. for 15 min; tissues were then triturated and strained using a 40 μm cell strainer. After washing and centrifugation, neurons were seeded in 50 μg/ml poly-D-Lysine (Sigma-Aldrich) coated tissue culture plates. NBActive-1 medium (BrainBits®) supplemented with 100 U/ml of Penicillin-Streptomycin (Life Technologies™), 2 mM L-Glutamine (Life Technologies™), and 1×N21 supplement (R&D Systems™) was used as culture medium. For preparation of culture medium containing reduced tyrosine, the components of NBActive-1 medium were altered to combined with a reduced concentration of tyrosine, as mentioned in Table 1, and was supplemented with 100 U/ml of Penicillin-Streptomycin (Life Technologies™), 2 mM L-Glutamine (Life Technologies™), and 1×N21 supplement (R&D Systems™) to obtained culture medium with reduced tyrosine. Control (non-targeting), TyrRS, and PARP1 siRNAs were obtained from Invitrogen™ (#AM4635, s443, and s130207, respectively). Rat cortical neurons at 5 DIV were transfected with 75 nM control or TyrRS siRNA using DharmaFECT™ 3 Transfection Reagent. A second transfection was done two days later using 75 nM of TyrRS siRNA, followed by cell collection or assays after another 48 hr. For PARP1 siRNA, neurons at 7 DIV were transfected with 75 nM siRNA for both control and PARP1 siRNA.\n(§2) Cultured neurons (DIV 9-10) were washed once with cold 1×PBS and lysed in cell lysis buffer (20 mM Tris-HCl (pH 7.5), 150 mM NaCl, 1 mM Na2EDTA, 1 mM EGTA, 1% Triton™, 2.5 mM sodium pyrophosphate, 1 mM beta-glycerophosphate, 1 mM Na3VO4, 1 μg/ml leupeptin supplemented with protease inhibitor). The lysates were centrifuged at 10,000 RPM for 15 mins at 4° C. to separate the chromatin-bound and soluble fractions. Lysates were quantified using Bio-Rad™ Protein Assay and equal amounts of protein were loaded onto a 4 to 12% gradient gel (Invitrogen™ NuPAGE™). Protein was transferred from the gel to 0.2 μm NC membranes at 25 V for 10 mins using transfer stacks (iBlot™ 2-Invitrogen™) and blocked with 5% non-fat milk in TBST (10 mM Tris-HCl pH 8.0, 150 mM NaCl, 0.01% Tween-20) for 1 hr before application of primary antibodies. Primary and secondary antibodies were incubated overnight at 4° C. and for 1 hr at room temperature, respectively. Immobilon® ECL Ultra Western HRP Substrate (WBULS0500, Millipore™) and a luminescent image analyzer (ChemiDoc™ Imaging System, Bio-Rad™) were used to detect proteins. Quantification of western blots was done using ImageJ (Version 1.53c)."}, "[2]": {"test_system": "cortical neurons", "assay": "Comet assay", "details": "for DNA damage, percentage (%) of DNA in the comet tail: compound alone", "description": "The cells were harvested with a cell scraper using chilled PBS and counted. The comet assay (Trevigen®, Gaithersburg, MD) was performed according to standard methods using alkaline conditions. Electrophoresis was carried out at the rate of 1.0 V/cm for 20 min. The slides were removed from the electrophoresis chamber, washed twice in deionized water for 5 min and immersed in 70% ethanol for 5 min. Subsequently, the slides were dried at 37° C. for 30 min, DNA was stained with 50 μL of SYBR™ Gold dye (Fisher Scientific, 1:10000 in Tris-EDTA buffer, pH 7.5) for 20 min in the dark at room temperature and then analyzed using an epifluorescent microscope at 10× magnification. The images were scored for comet parameters, such as tail length and tail moment (product of % of DNA in the tail and tail length), using the TriTek CometScore™ Freeware v1.5 image analysis software."}, "[3]": {"test_system": "neuronal chromatin", "assay": "Chromatin fraction immunoblots of cortical neurons", "details": "compound alone", "description": "as §2"}, "[4]": {"test_system": "TyrRS", "details": "for effect on NMDA- and MPP+-mediated decrease of neuronal TyrRS: combination with NMDA or MPP+, 4 hr", "description": "as §1, §2\n(§3) Cultured cortical neurons (DIV 9-10) were fixed in 4% formaldehyde for 15 min, followed by permeabilization and blocking for 30 min in 5% BSA (PBS) and 0.1% Tween™ 20 at room temperature. Incubation with primary antibodies was done at 4° C. overnight. The names and dilutions of the primary antibodies used for IF are described in Table 3. Secondary antibodies were incubated for 1 hr at room temperature. Secondary antibodies used were Alexa Fluor® 647 (anti-chicken), Alexa Fluor® 555 (anti-mouse), Alexa Fluor® 488 (anti-rabbit) from Invitrogen™ at 1:1000 dilution. Coverslips were then mounted using DAPI (4′,6-diamidino-2-phenylindole)-supplemented mounting medium, ProLong™ Gold Antifade (Invitrogen™) and imaged with Leica DMI6000 epifluorescent microscope using oil immersion 63×/NA 1.4 objective. The quantification for total protein levels in neurons was done using ImageJ (version 1.53c), and imaging parameters were matched for exposure, gain, and offset.\n(§4) The various compounds used for treatments and their stock concentrations in Table 4."}, "[5]": {"test_system": "PheRSα/β", "assay": "PheRSα/β protein levels in cortical neurons (Western blot)", "description": "as §1, §2, §4"}, "[6]": {"test_system": "histone H3-Ser10-ADP-ribosylation", "assay": "Histone H3 serine-ADP-ribosylation immunoblot in cortical neurons", "details": "compound alone", "description": "FIG. 5B presents representative immunoblots and quantification of histone H3-Ser10-ADP-ribosylation levels in cortical neurons (DIV9) using anti-H3-Ser10-ADPR antibody after treatment with D-tyrosine (2.5 and 5 mM).\nas §2"}, "[7]": {"test_system": "γ-H2AX", "assay": "γ-H2AX foci immunostaining in cortical neurons", "details": "for γ-H2AX (DNA damage marker): compound alone", "description": "as §3"}, "[8]": {"test_system": "8-oxo-dG", "assay": "8-oxo-dG immunofluorescence in cortical neurons", "details": "for 8-oxo-dG (oxidative DNA damage marker): compound alone", "description": "as §3"}},
  "note": "Like-named read-outs stand apart in the source and are kept apart here.",
  "data": [
    {"smiles": "Oc1ccc(/C=C\\c2cc(O)cc(O)c2)cc1", "note": "[cis-RSV, cis-resveratrol]", "values": [
      {"measurement": "eEF2 phosphorylation (p-eEF2)", "setting": "[1]", "result": "activated the dephosphorylation of eEF2"},
      {"measurement": "effect on DNA damage caused by Tyr", "setting": "[2]; combination with Tyr", "result": "attenuated the increase in DNA damage caused by Tyr"},
      {"measurement": "DNA damage, percentage (%) of DNA in the comet tail", "setting": "[2]", "result": "did not cause an increase in percentage of DNA in the comet tail"},
      {"measurement": "PARylated proteins in the chromatin fraction", "setting": "[3]", "result": "activated the de-ADP-ribosylation of the chromatin fraction"},
      {"measurement": "TyrRS in the chromatin fraction", "setting": "[3]", "result": "higher levels of TyrRS"},
      {"measurement": "association of PARP1 with the chromatin", "setting": "[3]", "result": "resulted in its removal from the chromatin"},
      {"measurement": "recruitment of ARH3 to the chromatin", "setting": "[3]", "result": "differential effects on the recruitment of ARH3 to the chromatin"},
      {"measurement": "recruitment of FEN1 to the chromatin", "setting": "[3]", "result": "decreased the recruitment of FEN1"},
      {"measurement": "recruitment of PARP2, HPF1 and OGG1 to the chromatin", "setting": "[3]", "result": "facilitated the recruitment of PARP2 along with other DNA repair factors such as HPF1 and OGG1 to the chromatin"},
      {"measurement": "TyrRS protein levels", "setting": "[4]; cis-RSV 10-50 μM", "result": "increased TyrRS protein levels both in the nucleus and neurites"},
      {"measurement": "effect on trans-RSV- and tyrosine-mediated decrease in TyrRS levels", "setting": "[4]; combination treatment", "result": "rescued the effects of trans-RSV and tyrosine-mediated decrease in TyrRS levels in a dose-dependent manner"},
      {"measurement": "effect on NMDA- and MPP+-mediated decrease of neuronal TyrRS", "setting": "[4]", "result": "suppressed this effect"},
      {"measurement": "effect on nelfinavir-mediated depletion of TyrRS", "setting": "[4]; combination with nelfinavir", "result": "rescued"},
      {"measurement": "PheRSβ and PheRSα levels", "setting": "[5]; low concentration cis-RSV", "result": "increased their levels"},
      {"measurement": "histone H3 serine-ADP-ribosylation", "setting": "[6]", "result": "stimulated serine-ADP-ribosylation"},
      {"measurement": "γ-H2AX levels", "setting": "[7]; added after 12 hr of tyrosine pretreatment", "result": "reduced γ-H2AX levels"},
      {"measurement": "effect on tyrosine-induced accumulation of γ-H2AX", "setting": "[7]; combination with tyrosine", "result": "rescued tyrosine-induced accumulation of γ-H2AX and 8-oxo-dG"},
      {"measurement": "γ-H2AX levels after ETO-mediated DNA damage", "setting": "[7]; with etoposide (ETO)", "result": "decreased levels of γ-H2AX"},
      {"measurement": "effect on tyrosine-induced accumulation of 8-oxo-dG", "setting": "[8]; combination with tyrosine", "result": "rescued tyrosine-induced accumulation of γ-H2AX and 8-oxo-dG"}
    ]},
    {"smiles": "Oc1ccc(/C=C/c2cc(O)cc(O)c2)cc1", "note": "[trans-RSV, trans-resveratrol]", "values": [
      {"measurement": "eEF2 phosphorylation (p-eEF2)", "setting": "[1]", "result": "increased p-eEF2 levels"},
      {"measurement": "DNA damage, percentage (%) of DNA in the comet tail", "setting": "[2]", "result": "significantly increased DNA damage"},
      {"measurement": "PARylated proteins in the chromatin fraction", "setting": "[3]", "result": "increased the levels of PARylated proteins in the chromatin fraction"},
      {"measurement": "association of PARP1 with the chromatin", "setting": "[3]", "result": "increased the association of PARP1 with the chromatin"},
      {"measurement": "recruitment of ARH3 to the chromatin", "setting": "[3]", "result": "differential effects on the recruitment of ARH3 to the chromatin"},
      {"measurement": "recruitment of PARP2, HPF1 and OGG1 to the chromatin", "setting": "[3]", "result": "prevented their recruitment"},
      {"measurement": "effect on NMDA- and MPP+-mediated decrease of neuronal TyrRS", "setting": "[4]", "result": "exacerbated it"},
      {"measurement": "TyrRS protein levels", "setting": "[4]; high dose of trans-RSV (50 μM)", "result": "decreased it"},
      {"measurement": "TyrRS protein levels", "setting": "[4]; low dose of trans-RSV (10 μm)", "result": "increased TyrRS"},
      {"measurement": "PheRSα levels", "setting": "[5]; high concentration trans-RSV", "result": "decreased PheRSβ, not PheRSα levels"},
      {"measurement": "PheRSβ levels", "setting": "[5]; high concentration trans-RSV", "result": "decreased PheRSβ"},
      {"measurement": "histone H3 serine-ADP-ribosylation", "setting": "[6]", "result": "inhibiting histone H3 serine-ADP-ribosylation"},
      {"measurement": "γ-H2AX (DNA damage marker)", "setting": "[7]", "result": "caused the accumulation of γ-H2AX and 8-oxo-dG"},
      {"measurement": "8-oxo-dG (oxidative DNA damage marker)", "setting": "[8]", "result": "caused the accumulation of γ-H2AX and 8-oxo-dG"}
    ]},
    {"smiles": "N[C@@H](Cc1ccc(O)cc1)C(=O)O", "note": "[tyrosine, L-tyrosine]", "values": [
      {"measurement": "eEF2 phosphorylation (p-eEF2)", "setting": "[1]", "result": "inhibited eEF2"},
      {"measurement": "DNA damage, percentage (%) of DNA in the comet tail", "setting": "[2]", "result": "significantly increased DNA damage"},
      {"measurement": "association of PARP1 with the chromatin", "setting": "[3]", "result": "trapping of PARP1"},
      {"measurement": "time until TyrRS levels were restored", "setting": "[4]; after tyrosine treatment", "result": "16 to 24", "unit": "h"},
      {"measurement": "TyrRS protein levels", "setting": "[4]; compound alone, rat cortical neurons", "result": "decreased TyrRS"},
      {"measurement": "PheRSβ levels", "setting": "[5]; compound alone", "result": "depleted PheRSβ"},
      {"measurement": "levels of PheRSβ", "setting": "[5]; second statement of the same sentence, see doubts", "result": "did not affect the levels of PheRSβ"},
      {"measurement": "histone H3 serine-ADP-ribosylation", "setting": "[6]", "result": "inhibiting histone H3 serine-ADP-ribosylation"},
      {"measurement": "γ-H2AX (DNA damage marker)", "setting": "[7]", "result": "accumulation of γ-H2AX foci"},
      {"measurement": "8-oxo-dG (oxidative DNA damage marker)", "setting": "[8]", "result": "resulted in the accumulation"}
    ]}
  ]
}
